Data: US20070166547A1, “Use of a layer consisting of hydrophobic linear, or two-dimensional polycyclic aromatics as a barrier layer or an encapsulation and electric components constructed with a layer of this type and comprising organic polymers” (priority 2003, published 2007)
Where two headings read alike, the source gives them in different places.

Columns and labels:
plasma hemostasis [1] = assay: Autocoagulation test (coagulating activity A) after intravenous administration; type: in vivo, rabbit
Method: (§1) The investigations were performed on 72 rabbits of the “Chinchilla” breed with a mass of 2.5±0.3 kg, who were administered which solutions of compounds 2, 15, 21, 37 in doses of 15, 30 and 60 mg/kg intravenously. The experiments included the thrombin-test (series No. 7300) and the coagulability-test (series No. 5000) purchased from the scientific-and-production association (SPA) “Renam”, thromboplastin (series No. 240600) and calcium chloride purchased from the SPA “MedioLab”
(§2) The static parameters of the blood and plasma coagulation (partial activated thromboplastin time, thrombin time, maximum coagulation activity (test for auto coagulation) were determined using the Behnk Electronic coagulometer (Germany). The operating principle of this instrument is based on the fact that the formed blood clot breaks the contacts of the pulse counter in the flask-pin circuit, said pin permanently oscillating in a vertical plane. The moment of formation of the clot is registered by stopping the stop watch hand.
(§3) The measurements were effected at a constant temperature of 37° C. maintained by a temperature control unit.
Compounds 2, 15, 21, 37 according to the invention at a concentration of 15, 30 and 60 mg/kg were intravenously administered to the above experimental animals and their blood samples were taken off 15, 30, 60 and 120 minutes after the administration.
Added to 0.2 ml of plasma obtained by centrifuging citrate blood at 1500 rev/min within 10 minutes was a glycosilate-calcium mixture (2.0 ml 0.222% CaCl2+0.1 ml of investigated citrate blood) 4, 6, 8, 10 minutes after the preparation of this mixture and the time of coagulation in the sample was determined.
The obtained results in seconds were translated in factors of coagulating activity A in percent, which specify the state of both the coagulating and anticoagulating parts of the blood coagulating system.

plasma hemostasis [2] = assay: Prothrombin time after intravenous administration; type: in vivo, rabbit
Method: as §1, §2, §3
The method of its determination is based on estimation of the coagulation of citrate or oxalic blood plasma, when it is mixed with thromboplastin and a calcium chloride solution. Since under these conditions the time of formation of the clot depends on the content of II, VII, IX and X factors in the investigated plasma sample, now the test is called “thromboplastin time by Quick” or “activity thromboplastin complex”.
Compounds 2, 15, 21, 37 according to the invention at a concentration of 15, 30 and 60 mg/kg were administered to the above experimental animals intravenously and their blood was taken off after 15, 30, 60 and 120 minutes after the administration.
Citrate blood containing 1 part of citrate per 9 parts of native blood was centrifuged at 3000 rev/min for 10 minutes to obtain plasma deprived of thrombocytes.
Added into a test tube in a water bath were 0.1 ml of plasma and 0.1 ml of a thromboplastin solution. After 60 seconds, 0.1 ml of 0.277% solution of calcium chloride was added and the time of reaction T1 in seconds was registered.

[3] = rat, in vivo
Method: The experiments were conducted on inbred rats. The experimental animals were selected in groups by a method of random sampling taking into account the body mass as a determining index; 24 males or 24 females for one preparation from compounds 2, 15, 23, 34, 37 investigated in one dose.
Two doses of preparations used in the experiments: 50 mg/kg and 500 mg/kg. Before the administration, the suppositories were softened by heating in a glass water bath at a temperature of 38-39° C., the soft mass was collected in tuberculin syringe in a volume of 1 ml, a needle with oliva was attached to the syringe, and the preparatory mass was introduced into the rectum of the animal for a depth of 1.5-2.0 cm. The animals of the control group were administered with sterile medical liquid paraffin in a volume corresponding to the volume of the investigated suppository. A complete course of administration of drugs to the animals was two months. A complex of laboratory diagnostic investigations was carried out one month after the beginning of the administration of the preparation to the animal—in a middle of the course (8 animals), two months after ending the course (8 animals) and three months after ending the recovery period of one month (8 animals). The mass of the body of the rats in the first month of administration of the preparation was determined weekly, and then once in two weeks. On the basis of the dynamics of an index of the mass of the animal body, the volume of preparation being administered was corrected taking into account the test dose.

SMILES: Nc1cccc2c(=O)[nH][nH]c(=O)c12.[Na] [Compound 15, sodium salt of 5-amino-benzo[d]-3H-pyridazine-1,4-dione]
- A, % after 15 minutes (coagulating activity) (plasma hemostasis [1]; dose 15.0 mg/kg intravenously): 82.3%
- A, % after 30 minutes (coagulating activity) (plasma hemostasis [1]; dose 15.0 mg/kg intravenously): 103.0%
- A, % after 60 minutes (coagulating activity) (plasma hemostasis [1]; dose 15.0 mg/kg intravenously): 89.0%
- A, % after 120 minutes (coagulating activity) (plasma hemostasis [1]; dose 15.0 mg/kg intravenously): 101.2%
- A, % after 15 minutes (coagulating activity) (plasma hemostasis [1]; dose 30.0 mg/kg intravenously): 100.3%
- A, % after 30 minutes (coagulating activity) (plasma hemostasis [1]; dose 30.0 mg/kg intravenously): 68.4%
- A, % after 60 minutes (coagulating activity) (plasma hemostasis [1]; dose 30.0 mg/kg intravenously): 106.6%
- A, % after 120 minutes (coagulating activity) (plasma hemostasis [1]; dose 30.0 mg/kg intravenously): 70.6%
- A, % after 15 minutes (coagulating activity) (plasma hemostasis [1]; dose 60.0 mg/kg intravenously): 74.4%
- A, % after 30 minutes (coagulating activity) (plasma hemostasis [1]; dose 60.0 mg/kg intravenously): 63.2%
- A, % after 60 minutes (coagulating activity) (plasma hemostasis [1]; dose 60.0 mg/kg intravenously): 64.4%
- A, % after 120 minutes (coagulating activity) (plasma hemostasis [1]; dose 60.0 mg/kg intravenously): 66.5%
- effect on the coagulation activity, autocoagulation test (overall) (plasma hemostasis [1]; doses 15.0, 30.0, 60.0 mg/kg): have no effect on the coagulation activity
- T, s After 120 minutes (prothrombin time) (plasma hemostasis [2]; dose 15.0 mg/kg intravenously): 11.5 ± 0.2 s
- T, s after 15 minutes (prothrombin time) (plasma hemostasis [2]; dose 15.0 mg/kg intravenously): 11.5 ± 0.2 s
- T, s after 30 minutes (prothrombin time) (plasma hemostasis [2]; dose 15.0 mg/kg intravenously): 11.7 ± 0.2 s
- T, s after 60 minutes (prothrombin time) (plasma hemostasis [2]; dose 15.0 mg/kg intravenously): 11.2 ± 0.2 s
- T, s After 120 minutes (prothrombin time) (plasma hemostasis [2]; dose 30.0 mg/kg intravenously): 11.3 ± 0.2 s
- T, s after 15 minutes (prothrombin time) (plasma hemostasis [2]; dose 30.0 mg/kg intravenously): 11.0 ± 0.2 s
- T, s after 30 minutes (prothrombin time) (plasma hemostasis [2]; dose 30.0 mg/kg intravenously): 11.2 ± 0.2 s
- T, s after 60 minutes (prothrombin time) (plasma hemostasis [2]; dose 30.0 mg/kg intravenously): 11.4 ± 0.2 s
- T, s After 120 minutes (prothrombin time) (plasma hemostasis [2]; dose 60.0 mg/kg intravenously): 12.0 ± 0.1 s
- T, s after 15 minutes (prothrombin time) (plasma hemostasis [2]; dose 60.0 mg/kg intravenously): 12.0 ± 0.1 s
- T, s after 30 minutes (prothrombin time) (plasma hemostasis [2]; dose 60.0 mg/kg intravenously): 12.0 ± 0.1 s
- T, s after 60 minutes (prothrombin time) (plasma hemostasis [2]; dose 60.0 mg/kg intravenously): 12.0 ± 0.2 s
- effect on the prothrombin time index (overall) (plasma hemostasis [2]; doses of 15.0, 30.0, 60.0 mg/kg): have no effect on the prothrombin time index
- Bilirubin (index of urine) ([3]; 50 mg/kg): <5 Mkmol/l
- Glucose (index of urine) ([3]; 50 mg/kg): <6 mmol/L
- Ketone bodies (index of urine) ([3]; 50 mg/kg): <1 mmol/L
- Potassium (index of urine) ([3]; 50 mg/kg): 5.28 ± 1.5 g/L
- Protein (index of urine) ([3]; 50 mg/kg): 0.71 ± 0.274 g/L
- Sodium (index of urine) ([3]; 50 mg/kg): 1.2 ± 0.4 g/L
- Urea (index of urine) ([3]; 50 mg/kg): 413 ± 128 mmol/L
- Urobilinogen (index of urine) ([3]; 50 mg/kg): <17 Mkmol/l
- pH (index of urine) ([3]; 50 mg/kg): 6.3 ± 0.4
- Bilirubin (index of urine) ([3]; 500 mg/kg): <5 Mkmol/l
- Glucose (index of urine) ([3]; 500 mg/kg): <6 mmol/L
- Ketone bodies (index of urine) ([3]; 500 mg/kg): <1 mmol/L
- Potassium (index of urine) ([3]; 500 mg/kg): 6.13 ± 1.6 g/L
- Protein (index of urine) ([3]; 500 mg/kg): 0.87 ± 0.24 g/L
- Sodium (index of urine) ([3]; 500 mg/kg): 0.64 ± 0.4 g/L
- Urea (index of urine) ([3]; 500 mg/kg): 485 ± 131 mmol/L
- Urobilinogen (index of urine) ([3]; 500 mg/kg): <17 Mkmol/l
- pH (index of urine) ([3]; 500 mg/kg): 6.2 ± 0.3
